In patent US20230303569A1, “HETEROCYCLIC COMPOUNDS AS THERAPEUTIC AGENTS” (Arisan Therapeutics Inc., priority 2021, published 2023):
Like-named read-outs stand apart in the source and are kept apart here.

Tests used:
Format in all cases: cell-based
[1] = biological target: T1, human Nav1.5 (late current) (Homo sapiens, UniProt Q14524); assay: Nav1.5 Late Current Assay (QPatch HT whole-cell patch clamp, 30 nM ATX-II); conditions: HEK293 cells stably expressing human Nav1.5, pH 7.3, late current with 30 nM ATX-II, read-out: percent inhibition hNav1.5 Late (5 uM)
T1 construct: host or cells: HEK293
T1 sequence (Q14524 whole entry): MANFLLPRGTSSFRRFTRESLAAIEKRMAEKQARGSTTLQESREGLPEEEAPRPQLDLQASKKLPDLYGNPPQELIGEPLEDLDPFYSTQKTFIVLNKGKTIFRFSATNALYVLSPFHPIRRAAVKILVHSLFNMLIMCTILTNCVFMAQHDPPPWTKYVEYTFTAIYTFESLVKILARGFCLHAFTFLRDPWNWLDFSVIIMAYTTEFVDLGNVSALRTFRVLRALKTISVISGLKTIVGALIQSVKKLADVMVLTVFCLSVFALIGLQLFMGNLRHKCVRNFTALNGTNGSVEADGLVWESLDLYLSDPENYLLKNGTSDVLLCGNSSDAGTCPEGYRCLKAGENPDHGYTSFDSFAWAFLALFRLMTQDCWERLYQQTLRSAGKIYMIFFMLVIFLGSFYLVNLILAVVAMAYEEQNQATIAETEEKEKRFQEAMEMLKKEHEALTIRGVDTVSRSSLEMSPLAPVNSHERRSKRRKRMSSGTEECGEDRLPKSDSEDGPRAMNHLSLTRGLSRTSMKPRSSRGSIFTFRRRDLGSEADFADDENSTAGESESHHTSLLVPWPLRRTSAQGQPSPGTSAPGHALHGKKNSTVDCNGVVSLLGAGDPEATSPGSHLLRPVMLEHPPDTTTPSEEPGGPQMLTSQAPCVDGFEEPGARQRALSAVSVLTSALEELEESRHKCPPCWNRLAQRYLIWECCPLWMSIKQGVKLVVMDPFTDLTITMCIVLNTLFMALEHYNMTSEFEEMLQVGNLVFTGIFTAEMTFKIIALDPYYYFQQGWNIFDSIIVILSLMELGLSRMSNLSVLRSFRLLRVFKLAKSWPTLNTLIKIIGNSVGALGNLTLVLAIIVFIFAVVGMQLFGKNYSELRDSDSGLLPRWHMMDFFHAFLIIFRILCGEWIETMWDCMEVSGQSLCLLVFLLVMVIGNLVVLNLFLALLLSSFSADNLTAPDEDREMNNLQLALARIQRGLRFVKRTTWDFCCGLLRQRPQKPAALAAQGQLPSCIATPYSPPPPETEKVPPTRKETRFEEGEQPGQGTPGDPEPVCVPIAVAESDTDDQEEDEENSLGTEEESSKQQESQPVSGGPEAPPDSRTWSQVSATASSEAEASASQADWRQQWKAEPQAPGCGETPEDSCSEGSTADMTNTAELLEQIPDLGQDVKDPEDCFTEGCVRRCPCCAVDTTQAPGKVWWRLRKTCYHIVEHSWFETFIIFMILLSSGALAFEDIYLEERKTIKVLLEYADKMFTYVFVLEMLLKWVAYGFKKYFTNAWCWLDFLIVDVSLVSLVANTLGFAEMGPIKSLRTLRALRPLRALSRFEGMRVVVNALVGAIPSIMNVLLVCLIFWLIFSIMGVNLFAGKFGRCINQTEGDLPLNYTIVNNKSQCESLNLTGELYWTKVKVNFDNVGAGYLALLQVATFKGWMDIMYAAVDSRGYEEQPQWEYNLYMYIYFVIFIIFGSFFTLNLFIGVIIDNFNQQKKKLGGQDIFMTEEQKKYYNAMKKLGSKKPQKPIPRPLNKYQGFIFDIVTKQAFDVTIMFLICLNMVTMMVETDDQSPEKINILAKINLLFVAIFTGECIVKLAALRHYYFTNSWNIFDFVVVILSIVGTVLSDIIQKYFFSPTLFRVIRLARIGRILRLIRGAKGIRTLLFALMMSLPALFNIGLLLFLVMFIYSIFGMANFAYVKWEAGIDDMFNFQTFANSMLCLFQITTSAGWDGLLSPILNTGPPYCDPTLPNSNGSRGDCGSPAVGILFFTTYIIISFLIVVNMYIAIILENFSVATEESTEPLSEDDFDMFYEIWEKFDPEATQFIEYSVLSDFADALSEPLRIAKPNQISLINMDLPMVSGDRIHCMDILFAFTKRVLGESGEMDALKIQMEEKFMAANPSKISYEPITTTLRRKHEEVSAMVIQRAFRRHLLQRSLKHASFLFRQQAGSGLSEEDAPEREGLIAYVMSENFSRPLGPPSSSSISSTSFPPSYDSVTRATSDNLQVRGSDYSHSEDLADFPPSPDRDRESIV
Protocol: (§1) In vitro Na+ Current Inhibition Assays were performed by Eurofins Discovery (St Charles, MO). All compound functional activity determinations were determined through electrophysiological analyses of Na+ currents in HEK293 cells expressing a stably transfected Na+ channel (human Nav1.1, 1.2, 1.3, 1.5, 1.6, 1.7, or 1.8). After harvesting with Accutase cells are maintained in serum free medium at room temperature prior to electrophysiological recording utilizing the QPatch HT automated whole-cell patch-clamp platform (Sophion Bioscience, Woburn MA). Stock solution aliquots of the test compound are prepared in DMSO at 300× the final assay concentrations, and stored at −20° C. until the day of assay. On the day of the assay, an aliquot of the stock solution is thawed and diluted into external solution (137 mM NaCl, 4 mM KCl, 1 mM MgCl2, 1.8 mM CaCl2, 10 mM HEPES, 10 mM Glucose (pH 7.3, titrated with 10M NaOH) to make final test concentrations. A final concentration of 0.33% DMSO is maintained for each concentration of the assay compounds. Internal solution for recordings of Na+ consist consists of 100 mM CsF, 45 mM CsCl, 5 mM NaCl, 10 mM HEPES, 5 mM EGTA (pH 7.3, titrated with 1M CsOH).
Onset and steady state induction of late Nav1.5 current was measured using a pulse pattern, repeated every 5 sec, consisting of a hyperpolarizing pulse to −120 mV for a 200 ms duration, depolarization to −15 mV amplitude for a 40 ms duration, followed by step to 40 mV for 200 ms and finally a 100 ms ramp (1.2 V/s) to a holding potential of −80 mV. Each concentration of compound was applied for 5 minutes. The assay was performed at room temperature. After establishing vehicle control condition, all further addition of external solutions contain 30 nM ATX-II to activate late currents. Each concentration of compound was also co-applied with 30 nM ATXII to estimate the Nav1.5 late current inhibition. […]. ATXII was used as the agonist positive control and was tested concurrently with the test compound. Ranolazine was used as the positive control and was tested concurrently with the test compound.
Nav1.5 late current was measured as the total charge flowing through the Nav1.5 channels (area under the curve) 5 ms after the Nav1.5 peak current till the end of the test pulse and as charge at their maxima during the ramp. Individual cell results were normalized to their respective vehicle control and the results were averaged. The sodium current was assessed in 30 nM ATXII as vehicle control conditions and then at the end of each five (5) minute compound application in the presence of 30 nM ATXII. Individual cell result was normalized to 30 nM ATXII vehicle control amplitude and the mean±SEM calculated for each compound concentration.

[2] = biological target: T2, human Nav1.5 (pulse 1, tonic inhibition) (Homo sapiens, UniProt Q14524); assay: Two pulse assay protocol, Nav1.5; conditions: HEK293 cells stably expressing human Nav1.5, pH 7.3, peak current, pulse 1 (tonic), read-out: percent inhibition hNav1.5, Pulse 1 (5 uM)
T2 construct: host or cells: HEK293
Protocol: as §1
(§2) Two pulse assay protocol for human Nav1.1, 1.2, 1.3, 1.5, 1.6, 1.7, and 1.8 channels. Mammalian cultured cells expressing the indicated human Nav1.1, 1.2, 1.3, 1.5, 1.6, 1.7 or 1.8 channels were assayed using the The QPatch HT (Sophion Bioscience, Woburn MA) automated system with an intracellular solution (mM) of 100 CsF, 45 CsCl, 5 NaCl, 10 HEPES, 5 EGTA (pH 7.3, titrated with 1M CsOH) and extracellular solution (mM) of 137 NaCl, 4 KCl, 1 MgCl2, 1.8 CaCl2, 10 HEPES, 10 Glucose (pH 7.3, titrated with 10M NaOH). Onset and steady state block of the sodium channel was measured using a pulse pattern, repeated every 20 seconds (s) from a holding potential of −120 mV for 100 ms, and then pulsed to 0 mV for 500 ms to inactivate the Na channels and facilitate inactivated state-dependent binding of the test compounds. The cell membranes were then stepped back to −120 mV for 10 ms to recover from inactivation into resting or closed state (channels with test compound bound to them will not recover from inactivation and will not open) before stepping to 0 mV for 50 ms (pulse 2) to measure Na channels that are available to open. Peak current was measured during the step to 0 mV at pulse 1 and 2 to measure tonic and state-dependent inhibition. Compound activities were assessed by dividing post current amplitude (at the end of each five (5) minute compound application) by the vehicle control amplitude and the mean calculated for each compound concentration. Tetracaine was used as a positive control and was tested concurrently with the test compounds. Current amplitudes in excess of 200 pA at the control stage were analyzed. The amplitude of the current was calculated by measuring the difference between the peak inward current on stepping to 0 mV (i.e. peak of the current) and remaining current at the end of the step. The current was assessed in vehicle control conditions and then at the end of each five (5) minute compound application.

[3] = biological target: T3, human Nav1.5 (pulse 2, state-dependent inhibition) (Homo sapiens, UniProt Q14524); assay: Two pulse assay protocol, Nav1.5; conditions: HEK293 cells stably expressing human Nav1.5, pH 7.3, peak current, pulse 2 (state-dependent), read-out: percent inhibition hNav1.5, Pulse 2 (5 uM)
T3 construct: host or cells: HEK293
Protocol: as §1, §2

human Nav1.6 = biological target: T4, human Nav1.6 (Homo sapiens, UniProt Q9UQD0); assay: Two pulse assay protocol, Nav1.6; conditions: 5 uM, peak current
T4 construct: host or cells: HEK293
Protocol: as §1, §2

human Nav1.7 = biological target: T5, human Nav1.7 (Homo sapiens, UniProt Q15858); assay: Two pulse assay protocol, Nav1.7; conditions: peak current
T5 construct: host or cells: HEK293
Protocol: as §1, §2

human Nav1.8 = biological target: T6, human Nav1.8 (Homo sapiens, UniProt Q9Y5Y9); assay: Two pulse assay protocol, Nav1.8; conditions: peak current
T6 construct: host or cells: HEK293
T6 sequence (Q9Y5Y9 whole entry): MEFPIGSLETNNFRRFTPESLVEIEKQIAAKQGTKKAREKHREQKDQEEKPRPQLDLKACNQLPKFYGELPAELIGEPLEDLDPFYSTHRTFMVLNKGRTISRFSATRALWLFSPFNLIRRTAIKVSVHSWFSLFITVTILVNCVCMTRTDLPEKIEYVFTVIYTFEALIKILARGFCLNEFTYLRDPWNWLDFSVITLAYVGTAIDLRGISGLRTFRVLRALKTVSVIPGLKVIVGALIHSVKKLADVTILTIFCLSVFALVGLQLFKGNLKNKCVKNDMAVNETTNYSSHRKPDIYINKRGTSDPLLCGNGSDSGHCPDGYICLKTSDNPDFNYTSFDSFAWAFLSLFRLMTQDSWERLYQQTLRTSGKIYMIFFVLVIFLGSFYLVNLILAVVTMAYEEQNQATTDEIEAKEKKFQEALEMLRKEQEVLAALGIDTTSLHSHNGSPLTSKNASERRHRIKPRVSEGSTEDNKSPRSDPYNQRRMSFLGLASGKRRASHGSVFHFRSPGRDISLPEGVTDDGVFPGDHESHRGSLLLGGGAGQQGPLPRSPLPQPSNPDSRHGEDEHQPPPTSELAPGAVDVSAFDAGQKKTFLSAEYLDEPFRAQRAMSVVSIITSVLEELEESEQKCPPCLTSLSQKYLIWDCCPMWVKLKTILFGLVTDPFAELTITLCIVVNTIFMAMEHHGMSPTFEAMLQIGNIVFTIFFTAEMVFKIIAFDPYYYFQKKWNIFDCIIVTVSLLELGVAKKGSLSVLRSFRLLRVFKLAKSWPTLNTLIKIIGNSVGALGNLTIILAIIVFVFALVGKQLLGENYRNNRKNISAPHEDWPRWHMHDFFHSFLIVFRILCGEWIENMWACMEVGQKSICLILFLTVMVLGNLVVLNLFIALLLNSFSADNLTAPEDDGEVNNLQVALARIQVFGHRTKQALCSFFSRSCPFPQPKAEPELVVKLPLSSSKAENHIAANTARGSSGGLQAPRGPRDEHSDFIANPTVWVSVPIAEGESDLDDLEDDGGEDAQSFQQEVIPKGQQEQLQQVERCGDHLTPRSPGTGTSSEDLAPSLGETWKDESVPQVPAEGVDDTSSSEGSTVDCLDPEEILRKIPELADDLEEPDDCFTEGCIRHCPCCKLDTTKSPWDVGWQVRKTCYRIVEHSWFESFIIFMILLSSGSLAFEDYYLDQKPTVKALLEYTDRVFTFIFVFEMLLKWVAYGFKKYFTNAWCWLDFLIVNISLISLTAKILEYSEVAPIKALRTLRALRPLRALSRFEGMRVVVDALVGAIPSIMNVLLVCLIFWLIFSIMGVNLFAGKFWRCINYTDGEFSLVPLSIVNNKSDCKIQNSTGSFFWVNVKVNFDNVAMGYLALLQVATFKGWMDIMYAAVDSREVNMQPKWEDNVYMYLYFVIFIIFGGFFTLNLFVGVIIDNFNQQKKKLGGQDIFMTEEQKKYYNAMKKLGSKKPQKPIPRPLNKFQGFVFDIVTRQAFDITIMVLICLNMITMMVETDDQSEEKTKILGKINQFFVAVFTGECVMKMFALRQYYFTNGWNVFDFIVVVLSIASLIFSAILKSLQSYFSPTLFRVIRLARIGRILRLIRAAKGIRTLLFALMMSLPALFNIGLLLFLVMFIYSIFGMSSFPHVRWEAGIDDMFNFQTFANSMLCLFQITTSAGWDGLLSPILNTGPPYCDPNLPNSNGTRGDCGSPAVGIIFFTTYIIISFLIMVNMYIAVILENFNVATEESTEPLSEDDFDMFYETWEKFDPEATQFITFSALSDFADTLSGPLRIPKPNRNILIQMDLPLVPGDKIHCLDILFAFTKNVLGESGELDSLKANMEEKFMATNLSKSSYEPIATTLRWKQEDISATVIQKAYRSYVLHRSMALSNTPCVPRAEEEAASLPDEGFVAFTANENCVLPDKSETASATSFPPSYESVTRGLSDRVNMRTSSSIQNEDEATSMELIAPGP
Protocol: as §1, §2

[4] = pulse 1 (tonic), read-out: percent inhibition hNav1.6, Pulse 1 (5 uM)
[5] = pulse 2 (state-dependent), read-out: percent inhibition hNav1.6, Pulse 2 (5 uM)
[6] = pulse 1 (tonic), read-out: percent inhibition hNav1.7, Pulse 1 (5 uM)
[7] = pulse 2 (state-dependent), read-out: percent inhibition hNav1.7, Pulse 2 (5 uM)
[8] = pulse 1 (tonic), read-out: percent inhibition hNav1.8, Pulse 1 (5 uM)
[9] = pulse 2 (state-dependent), read-out: percent inhibition hNav1.8, Pulse 2 (5 uM)

Compound | inhibition at 5 min, 5 uM [1] [%] | inhibition at 5 min, 5 µM [2] [%] | inhibition at 5 min, 5 µM [3] [%] | inhibition at 5 µM (human Nav1.6; [4]) [%] | inhibition at 5 µM (human Nav1.6; [5]) [%] | inhibition at 5 µM (human Nav1.7; [6]) [%] | inhibition at 5 µM (human Nav1.7; [7]) [%] | inhibition at 5 µM (human Nav1.8; [8]) [%] | inhibition at 5 µM (human Nav1.8; [9]) [%]
CC(C)Oc1ccc(-c2cnc3ccc(-c4ccc(OC(F)F)cc4)cn23)cc1 [Example C4, 6-[4-(difluoromethoxy)phenyl]-3-[4-(propan-2-yloxy)phenyl]imidazo[1,2-a]pyridine] | > 90 |  |  |  |  |  |  |  | 
CC(C)Oc1ccc(-c2cnc3ccc(-c4ccc(C5(N)CC5)cc4)cn23)cc1 [Example C15, 1-(4-{3-[4-(propan-2-yloxy)phenyl]imidazo[1,2-a]pyridin-6-yl}phenyl)cyclopropan-1-amine] | < 50 |  |  |  |  |  |  |  | 
CC(C)Oc1ccc(-c2cnc3ccc(-c4ccc(C(N)=O)cc4)cn23)cc1 [Example C16, 4-{3-[4-(propan-2-yloxy)phenyl]imidazo[1,2-a]pyridin-6-yl}benzamide] | < 50 |  |  |  |  |  |  |  | 
CC(C)Oc1ccc(-c2cnc3ccc(-c4cnn(C5CC5)c4)cn23)cc1 [Example C17, 1-cyclopropyl-4-{3-[4-(propan-2-yloxy)phenyl]imidazo[1,2-a]pyridin-6-yl}-1H-pyrazole] | < 50 |  |  |  |  |  |  |  | 
CC(C)Oc1ccc(-c2cnc3ccc(-c4ccc(OC(C)C)c(F)c4)cn23)cc1 [Example C24, 6-[3-fluoro-4-(propan-2-yloxy)phenyl]-3-[4-(propan-2-yloxy)phenyl]imidazo[1,2-a]pyridine] |  | < 50 | > 90 | < 50 | > 90 | < 50 | 50 to 90 |  | 
CC(C)Oc1ccc(-c2ccc3ncc(-c4cccc(OC(C)C)c4)n3c2)cc1 [Example C35, 3-[3-(propan-2-yloxy)phenyl]-6-[4-(propan-2-yloxy)phenyl]imidazo[1,2-a]pyridine] | > 90 |  |  |  |  |  |  |  | 
CC(C)Oc1ccc(-c2ccc3ncc(-c4ccc(OC(F)F)cc4)n3c2)cc1 [Example C40, 3-[4-(difluoromethoxy)phenyl]-6-[4-(propan-2-yloxy)phenyl]imidazo[1,2a]pyridine] | < 50 |  |  |  |  |  |  |  | 
COc1cc2ncc(-c3ccc(OC(C)C)cc3)n2cc1-c1ccc(OC(C)C)cc1 [Example C49, 7-methoxy-3,6-bis[4-(propan-2-yloxy)phenyl]imidazo[1,2-a]pyridine] | < 50 |  |  |  |  |  |  |  | 
CC(C)Oc1ccc(-c2cn3c(-c4ccc(OC(C)C)cc4)cnc3cc2C#N)cc1 [Example C52, 3,6-bis(4-isopropoxyphenyl)imidazo[1,2-a]pyridine-7-carbonitrile] | < 50 |  |  |  |  |  |  |  | 
Cc1cc2ncc(-c3ccc(C(C)(C)O)cc3)n2cc1-c1ccc(OC(C)C)cc1 [Example C56, 2-(4-(6-(4-isopropoxyphenyl)-7-methylimidazo[1,2-a]pyridin-3-yl)phenyl)propan-2-ol] | < 50 |  |  |  |  |  |  |  | 
FC(F)(F)Oc1ccc(-c2cnc3ccc(C(F)(F)F)cn23)cc1 [Example C60, 3-(4-(trifluoromethoxy)phenyl)-6-(trifluoromethyl)imidazo[1,2-a]pyridine] |  |  |  | < 50 | < 50 |  |  | < 50 | < 50
CC(C)Oc1ccc(-c2cnc3ccc(C(F)(F)F)cn23)cc1 [Example C61, 3-(4-isopropoxyphenyl)-6-(trifluoromethyl)imidazo[1,2-a]pyridine] |  |  |  | < 50 | < 50 |  |  | < 50 | < 50
CS(=O)(=O)NC(=O)c1ccn2c(-c3ccc(OC(F)(F)F)cc3)cnc2c1 [Example C66, N-(methylsulfonyl)-3-(4-(trifluoromethoxy)phenyl)imidazo[1,2-a]pyridine-7-carboxamide] |  | < 50 | < 50 |  |  | < 50 | < 50 | < 50 | < 50
CS(=O)(=O)NC(=O)c1cc2ncc(-c3ccc(OC(F)(F)F)cc3)n2cc1-c1ccc(OC(F)(F)F)cc1 [Example C67, N-(methylsulfonyl)-3,6-bis(4-(trifluoromethoxy)phenyl)imidazo[1,2-a]pyridine-7-carboxamide] |  | < 50 | < 50 |  |  | < 50 | < 50 | < 50 | < 50
Cc1cc(-c2cnc3ccc(-c4ccc(OC(C)C)cc4)cn23)cnc1OC(C)C [Example C71, 3-(6-isopropoxy-5-methylpyridin-3-yl)-6-(4-isopropoxyphenyl)imidazo[1,2-a]pyridine] |  | < 50 | > 90 | < 50 | > 90 | < 50 | > 90 |  | 
CC(C)Oc1ccc(-c2ccc3ncc(-c4ccc(C(C)(C)C)cc4)n3c2)cc1 [Example C87, 3-(4-(tert-butyl)phenyl)-6-(4-isopropoxyphenyl)imidazo[1,2-a]pyridine] |  | < 50 | > 90 | < 50 | > 90 | < 50 | > 90 |  | 
CC(C)Oc1ccc(-c2ccc3ncc(-c4ccc(C(C)(C)C)nc4)n3c2)cc1 [Example C89, 3-(6-(tert-butyl)pyridin-3-yl)-6-(4-isopropoxyphenyl)imidazo[1,2-a]pyridine] |  | < 50 | 50 to 90 | < 50 | > 90 | < 50 | > 90 |  | 
CC(C)Oc1ccc(-c2ccc3ncc(-c4ccc(OC(C)(C)C)nc4)n3c2)cc1 [Example C90, 3-(6-(tert-butoxy)pyridin-3-yl)-6-(4-isopropoxyphenyl)imidazo[1,2-a]pyridine] |  | < 50 | > 90 | < 50 | > 90 | < 50 | > 90 |  | 
